From ChEMBL document CHEMBL4483862, “Open-source discovery of chemical leads for next-generation chemoprotective antimalarials” (2018)

System: Plasmodium berghei
Assay: Luciferase/luciferin-expressing antifolate-resistant parasites were used to infect a culture of HepG2 cells that were pre-incubated with compounds. Infected hepatocytes emit light due to the luciferase reaction. Assay results are presented as the percent inhibition of light emission compared to control. […]
Format: functional
Conditions: sporozoite; for IC90: read-out: LUCIFERASE INFECTION ASSAY - IC90
[1] = read-out: LUCIFERASE INFECTION ASSAY - IC50

SMILES	IC90 [µM]	IC50 [1] [µM]	also measured
CC(C)(C)c1ccc(-c2cnc3cnc(-c4ccc(C(=O)NCCO)cc4)cn23)cc1	> 7.96	–	IC50 (PBLUC_HILL_SLOPE 23.2, PBLUC_R_SQUARED 0.508, read-out: LUCIFERASE INFECTION ASSAY - IC50): 7.27 µM
Cc1c(C(=O)OCc2ccc(C(C)C)cc2)sc2nc3n(c(=O)c12)CCC3	> 10	–	IC50 (PBLUC_HILL_SLOPE 5.57, PBLUC_R_SQUARED 0.253, read-out: LUCIFERASE INFECTION ASSAY - IC50): 6.97 µM
CCN1C(=O)N(CCCc2cccnc2)C(=O)C12CCN(Cc1cccc(C(F)(F)F)c1)CC2	> 6.95	–	IC50 (HEPG2TOX_HILL_SLOPE 2.53, HEPG2TOX_R_SQUARED 0.847, PBLUC_HILL_SLOPE 12.5, PBLUC_R_SQUARED 0.0898, read-out: LUCIFERASE INFECTION ASSAY - IC50): 6.59 µM
CN(c1ccccc1)c1nnc(C(O)c2ccc3ccccc3c2)s1 (stereo unspecified)	> 10	–	IC50 (PBLUC_HILL_SLOPE 0.974, PBLUC_R_SQUARED 0.604, read-out: LUCIFERASE INFECTION ASSAY - IC50): 3.52 µM
NC(=O)c1cccc(-c2ccc3ncc(-c4cccnc4)n3n2)c1	5.41	–	IC50 (HEPG2TOX_HILL_SLOPE 3.58, HEPG2TOX_R_SQUARED 0.988, PBLUC_HILL_SLOPE 1.15, PBLUC_R_SQUARED 0.587, read-out: LUCIFERASE INFECTION ASSAY - IC50): 0.804 µM
CCN1C(=O)N(C2Cc3ccccc3C2)C(=O)C12CCN(Cc1c[nH]nc1-c1ccc(F)cc1)CC2	> 6.77	4.54	–
O=C(NC(=S)NN(C(=S)NC(=O)c1ccccc1Br)c1nc2ccccc2[nH]1)c1ccccc1Br	> 10	> 10	–
N#Cc1ccc(-c2cnc3cnc(-c4cccc(N)c4)cn23)cc1	4.97	2.59	–
O=S(=O)(Nc1ccc(OC(F)(F)F)cc1)c1ccc(S(=O)(=O)c2ncc(C(F)(F)F)cc2Cl)s1	> 5.82	–	IC50 (FFLUC_HILL_SLOPE 4.61, FFLUC_R_SQUARED 0.168, read-out: LUCIFERASE INFECTION ASSAY - IC50): > 5.82 µM
Cc1ccc2oc(-c3ccc(C(C)(C)C)cc3)nc2c1	5.53	–	IC50 (FFLUC_HILL_SLOPE 3.61, FFLUC_R_SQUARED 0.123, HEPG2TOX_HILL_SLOPE 7.09, HEPG2TOX_R_SQUARED 0.0328, PBLUC_HILL_SLOPE 0.728, PBLUC_R_SQUARED 0.843, read-out: LUCIFERASE INFECTION ASSAY - IC50): 0.271 µM
CN(C)C(=O)c1cccc(-c2cn3c(-c4ccc(N(C)C)cc4)cnc3cn2)c1	7.57	4.36	–
CC(C)c1cccc(NC(=O)COc2ccc(S(N)(=O)=O)cc2[N+](=O)[O-])c1	> 10	> 10	–
N#Cc1c(N2CCCCCC2)nc(N)c2c(N)nc3c(c12)CC(=O)N3c1ccc(F)cc1	1.19	–	IC50 (FFLUC_HILL_SLOPE 141, FFLUC_R_SQUARED 0.168, PBLUC_HILL_SLOPE 30.3, PBLUC_R_SQUARED 0.605, read-out: LUCIFERASE INFECTION ASSAY - IC50): 1.1 µM
Cc1cccc(-c2nc3ccnc(Nc4ccc(C(C)C)cc4)c3[nH]2)c1	> 10	–	IC50 (HEPG2TOX_HILL_SLOPE 8.42, HEPG2TOX_R_SQUARED 0.9, PBLUC_HILL_SLOPE 13.4, PBLUC_R_SQUARED 0.519, read-out: LUCIFERASE INFECTION ASSAY - IC50): 8.58 µM
COc1cc2c(cc1NC(=O)C(C)N1CCN(C/C=C/c3ccccc3)CC1)oc1ccccc12 (stereo unspecified)	> 10	9.73	–
O=C(Nc1ccc(-c2nc3ccccc3[nH]2)cc1)C1CCCO1 (stereo unspecified)	> 10	> 10	–
c1ccc(OCCCn2c(CN3CCCCC3)nc3ccccc32)cc1	> 9.44	–	IC50 (PBLUC_HILL_SLOPE 1.54, PBLUC_R_SQUARED 0.0855, read-out: LUCIFERASE INFECTION ASSAY - IC50): > 9.44 µM
N#Cc1ccc(N2CCCN(C(=O)Nc3cc(Cl)cc(Cl)c3)CC2)nc1	> 8.46	> 8.46	–
CSc1ccc(-c2nccc3n[nH]c(C4CC4)c23)cc1	> 10	–	IC50 (PBLUC_HILL_SLOPE 3.07, PBLUC_R_SQUARED 0.601, read-out: LUCIFERASE INFECTION ASSAY - IC50): 5.61 µM
COCCNC(=O)c1nn(CCC(C)C)c2c1CN(C(=O)c1cc(C)n[nH]1)CC2	3.47	–	IC50 (PBLUC_HILL_SLOPE 11.6, PBLUC_R_SQUARED 0.412, read-out: LUCIFERASE INFECTION ASSAY - IC50): 2.87 µM
O=C(NCc1ccc(Cn2cccn2)cc1)N1CCN(c2ccc(C(F)(F)F)cc2[N+](=O)[O-])CC1	> 10	> 10	–
Cc1cc(C)cc(NC(=O)C(NCC(C(C)C)N2CCOCC2)c2ccccc2)c1 (stereo unspecified)	> 10	–	IC50 (PBLUC_HILL_SLOPE 13.4, 2.47, PBLUC_R_SQUARED 0.208, 0.834, read-out: LUCIFERASE INFECTION ASSAY - IC50): 6.61 µM

SMILES	IC90 [µM]	IC50 [1] [µM]	also measured
Cc1ccc(NC(=S)N/N=C2\C(=O)Nc3c(C)cc(C)cc32)c(C)c1	3.68	3.03	–
COc1ccccc1CNC(=O)Nc1nc(C(N)Cc2ccc(C(F)(F)F)cc2)cs1 (stereo unspecified)	7.12	–	IC50 (PBLUC_HILL_SLOPE 20.8, PBLUC_R_SQUARED 0.198, read-out: LUCIFERASE INFECTION ASSAY - IC50): 6.4 µM
COc1ccccc1-n1c(C)cc(/C=C(\C#N)c2nnc3n2CCCCC3)c1C	> 10	–	IC50 (PBLUC_HILL_SLOPE 15.5, PBLUC_R_SQUARED 0.0701, read-out: LUCIFERASE INFECTION ASSAY - IC50): 9.71 µM
OCc1ccc(-c2cnc3ccc(-c4ccccc4)nn23)cc1	3.93	–	IC50 (HEPG2TOX_HILL_SLOPE 2.14, HEPG2TOX_R_SQUARED 0.888, PBLUC_HILL_SLOPE 1.3, PBLUC_R_SQUARED 0.716, read-out: LUCIFERASE INFECTION ASSAY - IC50): 0.73 µM
COc1ccc(-c2cc3ncc(-c4ccccc4)c(N)n3n2)cc1	4.1	–	IC50 (PBLUC_HILL_SLOPE 17.3, PBLUC_R_SQUARED 0.589, read-out: LUCIFERASE INFECTION ASSAY - IC50): 3.61 µM
CN(C)c1ccc(NC(=O)C2(C)CCCCN2C)cc1 (stereo unspecified)	> 12	–	IC50 (PBLUC_HILL_SLOPE 1.77, PBLUC_R_SQUARED 0.752, read-out: LUCIFERASE INFECTION ASSAY - IC50): 6.68 µM
CCCCn1nnnc1CSc1nnc(-c2ccccc2F)n1Cc1ccccc1	> 10	> 10	–
Cc1c(C(=O)Nc2nc(CN3CC(C)CC(C)C3)cs2)[nH]c2c1C(=O)CC(C)(C)C2 (stereo unspecified)	9.99	–	IC50 (PBLUC_HILL_SLOPE 1.7, PBLUC_R_SQUARED 0.746, read-out: LUCIFERASE INFECTION ASSAY - IC50): 2.74 µM
Cc1cccc(-c2cn3c(-c4ccc(N(C)C)cc4)cnc3cn2)c1C	1.28	–	IC50 (HEPG2TOX_HILL_SLOPE 0.565, HEPG2TOX_R_SQUARED 0.75, PBLUC_HILL_SLOPE 0.899, PBLUC_R_SQUARED 0.883, read-out: LUCIFERASE INFECTION ASSAY - IC50): 0.111 µM
CN(C)S(=O)(=O)c1ccc(Cn2cc(C(=O)NCc3cccc(C(F)(F)F)c3)sc2=O)cc1	> 6.61	–	IC50 (PBLUC_HILL_SLOPE 16, PBLUC_R_SQUARED 0.195, read-out: LUCIFERASE INFECTION ASSAY - IC50): 6.47 µM
Clc1ccc(CSc2nncn2-c2ccc3c(c2)OCCO3)cc1	3.5	–	IC50 (HEPG2TOX_HILL_SLOPE 1.37, HEPG2TOX_R_SQUARED 0.824, PBLUC_HILL_SLOPE 1.99, PBLUC_R_SQUARED 0.536, read-out: LUCIFERASE INFECTION ASSAY - IC50): 1.16 µM
CC(Sc1nc(N)c2ccsc2n1)c1nc(-c2ccccc2)no1 (stereo unspecified)	> 10	–	IC50 (PBLUC_HILL_SLOPE 3.96, PBLUC_R_SQUARED 0.141, read-out: LUCIFERASE INFECTION ASSAY - IC50): > 10 µM
O=C(COC(=O)C1(c2ccccc2F)CCCC1)NC1CCCCCCC1	> 10	–	IC50 (PBLUC_HILL_SLOPE 12.1, PBLUC_R_SQUARED 0.29, read-out: LUCIFERASE INFECTION ASSAY - IC50): > 10 µM
Nc1ncc(-c2ccc(F)c(Cl)c2)cc1-c1ccc(O)cc1	> 10.5	> 10.5	–
COc1ccc(NC(=O)c2ccoc2)cc1S(=O)(=O)Nc1ccc(Br)cc1	1.62	–	IC50 (HEPG2TOX_HILL_SLOPE 1.42, HEPG2TOX_R_SQUARED 0.956, PBLUC_HILL_SLOPE 2.25, PBLUC_R_SQUARED 0.81, read-out: LUCIFERASE INFECTION ASSAY - IC50): 0.611 µM
CC(C)(C)c1ccc(C(=O)NNC(=S)Nc2cccc(C(F)(F)F)c2)cc1	> 8.34	7.4	–
O=C(Nc1ccccc1)c1ccc(CN2CCN(CCOc3ccccc3)CC2)cc1	1.96	0.646	–
COc1ccccc1-n1c(C)c(C)c2c1ncn1nc(-c3ccncc3)nc21	> 8.91	–	IC50 (PBLUC_HILL_SLOPE 2.29, PBLUC_R_SQUARED 0.762, read-out: LUCIFERASE INFECTION ASSAY - IC50): > 8.91 µM
Cn1cc(/C=C/C(=O)Nc2nc(-c3ccc4c(c3)OCCO4)cs2)cn1	> 10	9.99	–
Cc1cc(C(=O)CSc2nnc(Cc3cccc4ccccc34)n2C2CCCCC2)c(C)n1CC(F)(F)F	> 10	–	IC50 (FFLUC_HILL_SLOPE 15.7, FFLUC_R_SQUARED 0.514, PBLUC_HILL_SLOPE 7.31, PBLUC_R_SQUARED 0.494, read-out: LUCIFERASE INFECTION ASSAY - IC50): 8.44 µM
CC(C)(C)NC(=S)N/N=C/c1cc([N+](=O)[O-])ccc1O	11.1	–	IC50 (HEPG2TOX_HILL_SLOPE 9.08, HEPG2TOX_R_SQUARED 0.437, PBLUC_HILL_SLOPE 15.5, PBLUC_R_SQUARED 0.332, read-out: LUCIFERASE INFECTION ASSAY - IC50): 9.61 µM
